Results: PMC9469500, “Targeting an Initiator Allergen Provides Durable and Expansive Protection against House Dust Mite Allergy” (ACS Pharmacology & Translational Science, 2022)
Where a name gives a salt, the structure may show the parent alone.

Legend:
[1] = Plasma protein binding (human); assay type: in vitro ADME
Method: Plasma Protein Binding Assay
Plasma protein binding (PPB) was determined using Rapid Equilibrium Dialysis chambers with 8 kDa cut-off inserts (Fisher Scientific UK Ltd, Leicestershire, UK). Rat (Sprague Dawley strain) plasma EDTA K2 (pooled, mixed sex, SeraLab, West Sussex, UK) was centrifuged (13,000 x g, 10 min) to remove precipitates before addition of compounds (initial concentration 5 µM). Concentrations were determined by liquid chromatography-tandem mass spectrometry (LC-MS-MS) (AB Sciex 3200 QTrap) after 4 h incubation at 37 °C with binding being calculated from the concentration of compound in each chamber. Assays were performed in replicate and the data expressed as mean ± s.e.
Cellular Stability of Compounds […]
Kaighn’s modification of Ham’s F12 medium (F12K). Cells were prepared for assay by washing 3 times with serum-free F12K. NR8383 Airway macrophages were grown in suspension culture in F12K, collected by centrifugation, washed in serum-free medium and aliquoted into test plates (1.4 x 10^6 cells/well). Both cell lines were treated with ADI compounds (100 nM) in serum -free F12K in a 5% CO 2 environment at 37 […]
n-Octanol (0.7 mL), pre -saturated with 10 mM PBS, pH7.4, was added to test compound (~1 mg) in a 2 mL HPLC vial followed by PBS (0. 7 mL), which had been pre -saturated with n -octanol. […]

thermodynamic solubility = assay type: physicochemical; conditions: thermodynamic from solid
plasma stability (human) = assay type: in vitro ADME
[2] = tested on: rats sensitized to the HDM allergen extract; assay: HDM extract challenge in rats sensitized to the HDM allergen extract (BAL cells and mediators); assay type: in vivo, BN rats; conditions: single i.t. aerosol dose 2 h before (15 μg/kg compound 1, 46 μg/kg compound 2), BAL 48 h
Excerpt: Control animals received saline vehicle treatment.

rat hepatocytes = assay: hepatocyte stability (rat); assay type: in vitro ADME
human hepatocytes = assay: hepatocyte stability (human); assay type: in vitro ADME
[3] = tested on: rat airway epithelial cell line L2; assay: Cellular stability in L2 cells; assay type: in vitro ADME; conditions: 100 nM compound
Method: (§1) Cellular Stability of Compounds
(§2) The cellular stability of compounds in vitro was tested using rat airway epithelial cell line L2 and rat alveolar macrophage line NR8383 (ATCC©CRL-2192™). Assays were performed in replicate and the data expressed as mean ± s.e. mean. L2 cells were cultured to confluence in T25 flasks or 24 -well plates using Kaighn’s modification of Ham’s F12 medium (F12K). Cells were prepared for assay by washing 3 times with serum-free F12K. NR8383 Airway macrophages were grown in suspension culture in F12K, collected by centrifugation, washed in serum-free medium and aliquoted into test plates (1.4 x 10^6 cells/well). Both cell lines were treated with ADI compounds (100 nM) in serum -free F12K in a 5% CO 2 environment at 37 °C. Samples were removed for quantitative analysis by LC -MS-MS using appropriate multiple reaction monitoring transitions for each analyte. […]
(§3) n-Octanol (0.7 mL), pre -saturated with 10 mM PBS, pH7.4, was added to test compound (~1 mg) in a 2 mL HPLC vial followed by PBS (0. 7 mL), which had been pre -saturated with n -octanol. The mixture was shaken for 90 min before centrifugation for 10 min at 4,000 rpm. The upper organic layer (0.2 mL) and the aqueous layer (0.5 mL) were removed for analysis by LC-MS. Peak identity was confirmed by mass spectrometry and concentration assessed spectrophotometrically using a diode array detector. The log

[4] = tested on: rat alveolar macrophage line NR8383; assay: Cellular stability in macrophages; assay type: in vitro ADME; conditions: 100 nM compound
Method: as §1, §2, §3

plasma stability (rat) = assay type: in vitro ADME
Pharmacokinetics in rats = conditions: rat p.o.
Method: Soluble formulations were developed and verified by high performance liquid chromatography (HPLC)
1 mL/kg) and p.o. (5 mg/kg, 5 mL/kg) in non-fasted Sprague-Dawley rats (male, 200-300 g, 10-16 weeks
of age, groups of three animals per route per compound). Timed blood samples were taken after dosing
and plasma prepared for LC-MS-MS quantification of the test substance after inclusion of an internal
standard. A non -compartmental model in WinNonlin software was used to calculate pharmacokinetic

unsensitized BN rats = assay: HDM extract challenge in unsensitized (naive) BN rats, duration of protection; assay type: in vivo
[5] = Plasma protein binding (rat); assay type: in vitro ADME
Method: Plasma protein binding (PPB) was determined using Rapid Equilibrium Dialysis chambers with 8 kDa cut-off inserts (Fisher Scientific UK Ltd, Leicestershire, UK). Rat (Sprague Dawley strain) plasma EDTA K2 (pooled, mixed sex, SeraLab, West Sussex, UK) was centrifuged (13,000 x g, 10 min) to remove precipitates before addition of compounds (initial concentration 5 M). Concentrations were determined by liquid chromatography-tandem mass spectrometry (LC-MS-MS) (AB Sciex 3200 QTrap) after 4 h incubation at 37 °C with binding being calculated from the concentration of compound in each chamber. Assays were performed in replicate and the data expressed as mean ± s.e.

[6] = single i.t. dose (15 μg/kg compound 1, 46 μg/kg compound 2), BAL 48 h

`CC(C)[C@H](NC(=O)[C@H](C)NC(=O)[C@@H](NC(=O)C1CC[N+](C)(C)CC1)C(C)(C)C)C(=O)C(=O)NCc1ccccc1` [Compound 2, 4-{(S)-1-[(S)-1-((S)-1-benzylaminooxalyl-2-methyl-propylcarbamoyl)-ethylcarbamoyl]-2,2-dimethyl-propylcarbamoyl}-1,1-dimethyl-piperidinium formate] showed a fraction unbound at 4 h, 5 µM [1] of 0.37, a solubility thermodynamic (thermodynamic solubility) greater than 1600 µM and a remaining at 2 h (plasma stability (human)) of 100%. For the same compound, the “changes in BAL cells after HDM challenge” value ([2]; HDM 10 (10 μg Der p 1) i.t. aerosol) was “attenuated”, the “BAL eosinophils after HDM challenge” value ([2]; HDM 10) was “eosinophil suppression” and the “BAL monocytes/macrophages after HDM challenge” value ([2]; HDM 10) was “No effects”. For the same compound, the “BAL neutrophil responses after HDM challenge” value ([2]; HDM 10) was “not significant”, the hepatocyte half-life (rat hepatocytes) was “∞ (rat); ∞ (human)” and the hepatocyte half-life (human hepatocytes) was “∞ (rat); ∞ (human)”. For the same compound, the cell stability [3] was 100;100, the cell stability [4] was 100;100 and the remaining at 2 h (plasma stability (rat)) was 100%. For the same compound, the half-life (Pharmacokinetics in rats; male, Sprague-Dawley, rat, plasma, po, 5 mg/kg, half-life, fed) was 18 min, the volume of distribution (Pharmacokinetics in rats) was 0.3 L/kg and the clearance (Pharmacokinetics in rats; fasted) was 19 (fasted) mL/min/kg. The neutrophil response (unsensitized BN rats; BAL performed 24 h after HDM extract challenge, dosed 2 h prior) was “clear inhibition”, the “inhibition of BAL monocytes/macrophages (significance)” value (unsensitized BN rats; dosing 120 min prior to challenge, 46 μg/kg i.t., BAL 48 h) was “significant” and the “performance in vivo (maximum inhibition of the eosinophil response, Figure 5A)” value (unsensitized BN rats; focused library, durability of inhibition studies) was “performed well”. The “effects on BAL neutrophils” value (unsensitized BN rats; intervening pretreatment intervals, BAL 48 h) was “insignificant”, the “effect on BAL neutrophils (significance)” value (unsensitized BN rats; pretreatment 60 min, 46 μg/kg i.t., BAL 48 h) was “significant” and the “effect on BAL neutrophils (significance)” value (unsensitized BN rats; pretreatment 360 min, 46 μg/kg i.t., BAL 48 h) was “significant”. The “effects on BAL neutrophils” value (unsensitized BN rats; short or long pretreatment intervals, BAL 48 h) was “inhibitory”, the “effect on BAL monocytes/macrophages” value (unsensitized BN rats; shorter pretreatment times, BAL 48 h) was “modest inhibition” and the “effect on eosinophils with 6–8 h separation of dose and challenge” value (unsensitized BN rats; [6]) was “substantial inhibition”. For the same compound, the “time of administration before challenge giving peak effects on eosinophils” value (unsensitized BN rats; [6]) was 2 h and the plasma protein binding [5] was 61%.
